Assay results reported in patent US20220291203A1, “METHODS OF MEASURING CELL-MEDIATED KILLING BY EFFECTORS” (IMMUNOWAKE INC., priority 2019, published 2022).
“Also recorded” adds a separate entry of the source.

System: dual reporter MDA-MB-231 cells (MDA-MB-231 WT)
Assay: T cell killing in 3D tumor-fibroblast spheroids (Example 17)
Format: cell-based, human
Conditions: nivolumab 0.5 μg/mL; 3D spheroids, 3E:1T
From the text: Dual reporter MDA-MB-231 cell line with PD-L1 knockout (KO) (hereinafter referred to as “dual reporter MDA-MB-231 PD-L1 KO cells” or “MDA-MB-231 KO”) was constructed by co-transducing the Tet-on snLuc-GFP construct as constructed in Example 1 and CRISPR/Cas9 constructs targeting PD-L1. 3D tumor-fibroblast spheroids were generated by co-culturing 10,000 human dermal fibroblasts and 10,000 dual reporter MDA-MB-231 cells (“MDA-MB-231 WT”) or dual reporter MDA-MB-231 PD-L1 KO cells in ultra-low attachment plates for 3 days. After spheroid formation, 30,000 unstimulated primary T cells (3E:1T) were added in the presence of increasing concentrations of trispecific anti-HER2/anti-CD47/anti-CD3 antibody (serially diluted 5-fold, 1000 ng/mL-0.032 ng/mL), and without or with anti-PD-1 antibody nivolumab (0.5 μg/mL).
The trispecific anti-HER2/anti-CD47/anti-CD3 antibody (made in house) has no Fc function due to LALA mutations and cannot mediate ADCC. The cell-killing reaction was incubated for 48 hours. […] Cell culture media was taken one day post-induction with doxycycline (t=72 hr), and luminescence was measured on a GloMax Discover Microplate Reader. Percent cell survival was defined as luminescence readout at various antibody concentrations relative to the average readout with no antibody. […]

nivolumab
effect of nivolumab on trispecific antibody-mediated T cell killing: rescued T cell killing on dual reporter MDA-MB-231 cells; also recorded: could rescue the immunosuppression on cytotoxic T cells
